Active and inactive are the calls of the source.

Test [1] concerns the target Adenosylmethionine-8-amino-7-oxononanoate aminotransferase (Mycobacterium tuberculosis, UniProt P9WQ81). Briefly: Mycobacterium tuberculosis BioA enzyme inhibitor Measured in Biochemical System Using Plate Reader - 2163-02_Inhibitor_Dose_CherryPick_Activity. It counts as functional, Mycobacterium tuberculosis UT205.
For test [2], the system named is Streptococcus sp. 'group A'. Briefly: growth inhibition of control SK(-) GAS strain, dose response, counter-screen for streptokinase expression inhibitor project, luminescence, kanamycin, BacTiterGlo, confirmation (AID 1900). It counts as functional, organism-based.
The target of test [3] is T1, Streptokinase A (Streptococcus pyogenes serotype M1, UniProt P10520).
T1 sequence (P10520 whole entry): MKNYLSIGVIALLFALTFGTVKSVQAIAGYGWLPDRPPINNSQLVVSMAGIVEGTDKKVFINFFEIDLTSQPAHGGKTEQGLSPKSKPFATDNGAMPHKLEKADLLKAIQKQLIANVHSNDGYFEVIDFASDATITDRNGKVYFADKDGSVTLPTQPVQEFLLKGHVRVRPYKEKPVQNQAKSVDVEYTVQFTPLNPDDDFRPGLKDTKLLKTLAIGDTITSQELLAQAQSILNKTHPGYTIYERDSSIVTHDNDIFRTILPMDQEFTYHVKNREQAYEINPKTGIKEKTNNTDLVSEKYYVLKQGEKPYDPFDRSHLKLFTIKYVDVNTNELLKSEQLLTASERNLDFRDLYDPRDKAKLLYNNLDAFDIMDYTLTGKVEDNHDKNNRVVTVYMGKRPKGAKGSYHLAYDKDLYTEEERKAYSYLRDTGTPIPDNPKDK
Briefly: S. pyogenes streptokinase expression inhibitors, potency, dose response, plasminogen activation absorbance, OD405 (AID 1914).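 Further: secreted streptokinase activity via plasminogen activation per viability signal from cell pellet.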 In kind it is functional, Streptococcus pyogenes M1 GAS.

The test system of test [4] is Streptococcus. Briefly: Group A Streptococcus viability loss, dose response, counter-screen for streptokinase expression inhibitor project, luminescence, BacTiterGlo (AID 1915).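 Further: potency for reduction of bacterial viability or growth.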 It counts as functional, organism-based.
The subject of test [5] is Vero. Briefly: Vero cell cytotoxicity, cytotoxicity control for flavivirus capping enzyme inhibitors (AID 588742). Conditions: Chlorocebus sabaeus. It counts as functional.
Test [6] addresses T2, Apoptotic protease-activating factor 1 (Homo sapiens, UniProt O14727).
T2 sequence (O14727 whole entry): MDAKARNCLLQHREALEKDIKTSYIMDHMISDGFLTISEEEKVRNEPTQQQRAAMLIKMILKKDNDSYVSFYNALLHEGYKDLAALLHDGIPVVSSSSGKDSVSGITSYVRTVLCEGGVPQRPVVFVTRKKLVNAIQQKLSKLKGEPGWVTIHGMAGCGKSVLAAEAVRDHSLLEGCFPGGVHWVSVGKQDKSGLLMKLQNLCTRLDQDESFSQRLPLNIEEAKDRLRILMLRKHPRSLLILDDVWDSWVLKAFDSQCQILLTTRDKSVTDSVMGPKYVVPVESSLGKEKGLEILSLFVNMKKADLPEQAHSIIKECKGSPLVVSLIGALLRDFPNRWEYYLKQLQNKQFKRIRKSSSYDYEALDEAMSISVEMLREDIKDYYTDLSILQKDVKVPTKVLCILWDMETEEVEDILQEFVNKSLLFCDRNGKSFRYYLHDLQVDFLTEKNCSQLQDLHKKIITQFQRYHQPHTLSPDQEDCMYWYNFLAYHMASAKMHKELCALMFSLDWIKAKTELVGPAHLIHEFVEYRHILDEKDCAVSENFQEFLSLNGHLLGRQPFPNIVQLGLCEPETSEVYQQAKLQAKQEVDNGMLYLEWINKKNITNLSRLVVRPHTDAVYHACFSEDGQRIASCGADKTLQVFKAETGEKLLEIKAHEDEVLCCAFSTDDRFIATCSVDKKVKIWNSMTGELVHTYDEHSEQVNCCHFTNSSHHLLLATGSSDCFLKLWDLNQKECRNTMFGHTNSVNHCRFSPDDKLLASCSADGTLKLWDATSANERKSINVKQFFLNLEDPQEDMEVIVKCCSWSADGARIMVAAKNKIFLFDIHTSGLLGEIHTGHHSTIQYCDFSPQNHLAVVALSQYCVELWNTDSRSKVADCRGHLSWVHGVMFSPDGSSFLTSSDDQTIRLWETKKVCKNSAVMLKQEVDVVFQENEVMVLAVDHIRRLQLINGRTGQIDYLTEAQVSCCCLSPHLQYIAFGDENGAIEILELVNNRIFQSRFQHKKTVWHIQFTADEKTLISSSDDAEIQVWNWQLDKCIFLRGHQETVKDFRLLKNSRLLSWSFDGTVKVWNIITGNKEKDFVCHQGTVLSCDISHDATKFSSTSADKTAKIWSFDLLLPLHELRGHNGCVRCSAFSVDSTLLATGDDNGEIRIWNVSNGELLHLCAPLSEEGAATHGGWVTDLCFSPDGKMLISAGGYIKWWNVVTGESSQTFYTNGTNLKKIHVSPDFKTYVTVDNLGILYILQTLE
It counts as functional.

Test [7] addresses T3, Polyadenylate-binding protein 1 (Homo sapiens, UniProt P11940). Briefly: PABP1 MLLE–PAM2 interaction inhibitors, dose response, miRNA deadenylation inhibitor project, biochemical, fluorescence polarization, Cy5-PAM2 peptide, secondary (AID 602260). In kind it is functional. Conditions: read-out: IC50_Mean.
Test [8] concerns the target T3, Polyadenylate-binding protein 1. Briefly: PABP1 MLLE–PAM2 binding inhibitor potency, dose response, biochemical, fluorescence polarization, FITC-PAM2 peptide (AID 602259). It counts as functional. To be noted: read-out: IC50_Mean.
The subject of test [9] is INS1. Briefly: beta cell apoptosis inhibitors, cytokine rescue, dose response, luminescence, retest (AID 449756).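 Further: cell death triggered by IL-1 beta plus TNF-alpha plus IFN-gamma mixture; protective hits raise ATP signal compared with cytokine alone wells.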 In kind it is functional, cell-based. To be noted: Rattus norvegicus.
Test [10] addresses Protein Wnt-3a (Mus musculus, UniProt P27467). Briefly: Wnt3a-driven reporter signaling inhibition, dose response, selectivity assay for Gli-SUFU antagonist project, Wnt-LIGHT cells, luminescence (AID 651570).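 Further: Wnt-LIGHT reporter cells stimulated with conditioned medium from Wnt3a-producing cells.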 In kind it is functional. Conditions: read-out: IC50_Mean.
Test [11] in a line: cytotoxicity in HPDE-C7 cells, cell-based, fluorescence, HTS (AID 430). In kind it is functional. To be noted: Homo sapiens.
Test [12] in a line: cytotoxicity in KRAS-transformed pancreatic duct cells, primary screen, cell-based, fluorescence, HTS (AID 431). In kind it is functional. To be noted: Homo sapiens.
Test [13] is described as follows: ARNT/TACC3 interaction disruptors, potency, confirmation, biochemical, AlphaScreen, cherry-picked samples (AID 651703).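 Further: His-tagged ARNT PAS-B domain paired with GST-TACC3 E629A dimer coactivator fragment; potency of inhibitors that break up the complex and lower AlphaScreen signal.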 In kind it is functional, Homo sapiens.
For test [14], the target named is T4, Histone-lysine N-methyltransferase NSD2 (Homo sapiens, UniProt O96028).
T4 sequence (O96028 whole entry): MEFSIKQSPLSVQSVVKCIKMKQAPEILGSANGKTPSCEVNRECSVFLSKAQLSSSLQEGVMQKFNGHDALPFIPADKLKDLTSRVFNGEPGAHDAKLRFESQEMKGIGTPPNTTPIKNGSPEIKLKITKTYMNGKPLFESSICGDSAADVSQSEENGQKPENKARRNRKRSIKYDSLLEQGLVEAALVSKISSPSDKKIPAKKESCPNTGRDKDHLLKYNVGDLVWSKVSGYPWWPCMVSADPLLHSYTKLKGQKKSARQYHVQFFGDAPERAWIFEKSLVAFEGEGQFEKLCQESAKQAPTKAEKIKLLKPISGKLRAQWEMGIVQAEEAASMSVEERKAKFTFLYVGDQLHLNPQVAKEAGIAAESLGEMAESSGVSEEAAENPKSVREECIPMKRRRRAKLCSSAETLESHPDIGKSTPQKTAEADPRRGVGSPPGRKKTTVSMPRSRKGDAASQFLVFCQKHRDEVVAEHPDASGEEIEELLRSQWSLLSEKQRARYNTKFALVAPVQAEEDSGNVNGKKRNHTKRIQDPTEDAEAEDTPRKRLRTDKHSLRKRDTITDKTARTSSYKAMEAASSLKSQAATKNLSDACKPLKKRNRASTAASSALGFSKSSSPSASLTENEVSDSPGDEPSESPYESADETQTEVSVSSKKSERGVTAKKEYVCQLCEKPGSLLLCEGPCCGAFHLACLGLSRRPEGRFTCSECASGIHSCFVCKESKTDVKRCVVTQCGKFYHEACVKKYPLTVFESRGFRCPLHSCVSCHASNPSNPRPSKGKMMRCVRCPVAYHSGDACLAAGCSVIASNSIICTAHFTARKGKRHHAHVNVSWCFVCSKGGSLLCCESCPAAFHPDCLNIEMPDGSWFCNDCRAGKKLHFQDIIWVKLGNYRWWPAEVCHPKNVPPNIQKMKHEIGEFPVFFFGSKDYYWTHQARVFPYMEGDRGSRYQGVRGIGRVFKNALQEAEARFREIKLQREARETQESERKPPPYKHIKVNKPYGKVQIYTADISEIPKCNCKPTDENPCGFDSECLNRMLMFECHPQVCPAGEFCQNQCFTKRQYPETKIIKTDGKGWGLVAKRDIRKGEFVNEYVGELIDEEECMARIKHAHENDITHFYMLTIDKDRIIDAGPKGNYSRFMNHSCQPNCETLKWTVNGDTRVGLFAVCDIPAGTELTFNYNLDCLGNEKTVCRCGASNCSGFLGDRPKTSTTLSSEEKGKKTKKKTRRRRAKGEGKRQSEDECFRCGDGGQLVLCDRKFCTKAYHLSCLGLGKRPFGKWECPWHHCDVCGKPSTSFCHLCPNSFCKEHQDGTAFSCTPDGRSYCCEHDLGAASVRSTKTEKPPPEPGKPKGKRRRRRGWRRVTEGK
In kind it is biochemical.

Test [15] in a line: Shn3 3'UTR reporter inhibitors, dose response, cell-based, Clone20 osteoblasts, firefly luciferase, cherry-picked (AID 624132).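 Further: firefly luciferase luminescence from reporter carrying the Shn3 3'UTR in osteoblasts.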 It counts as functional.
The nature of test [16]: control 3'UTR Renilla luciferase suppression, dose response, counter-screen for Shn3 inhibitor project, cell-based, Clone20-Shn3RL, cherry-picked (AID 624133). In kind it is functional.
The target in test [17] is DNA repair and recombination protein RAD54-like (Homo sapiens, UniProt Q92698). Briefly: inhibitors of human RAD54 branch migration, confirmation, biochemical, fluorescence, cherry-picked samples, dose series (AID 651657). It counts as functional.
DNA repair and recombination protein RAD54-like, sequence (Q92698 whole entry): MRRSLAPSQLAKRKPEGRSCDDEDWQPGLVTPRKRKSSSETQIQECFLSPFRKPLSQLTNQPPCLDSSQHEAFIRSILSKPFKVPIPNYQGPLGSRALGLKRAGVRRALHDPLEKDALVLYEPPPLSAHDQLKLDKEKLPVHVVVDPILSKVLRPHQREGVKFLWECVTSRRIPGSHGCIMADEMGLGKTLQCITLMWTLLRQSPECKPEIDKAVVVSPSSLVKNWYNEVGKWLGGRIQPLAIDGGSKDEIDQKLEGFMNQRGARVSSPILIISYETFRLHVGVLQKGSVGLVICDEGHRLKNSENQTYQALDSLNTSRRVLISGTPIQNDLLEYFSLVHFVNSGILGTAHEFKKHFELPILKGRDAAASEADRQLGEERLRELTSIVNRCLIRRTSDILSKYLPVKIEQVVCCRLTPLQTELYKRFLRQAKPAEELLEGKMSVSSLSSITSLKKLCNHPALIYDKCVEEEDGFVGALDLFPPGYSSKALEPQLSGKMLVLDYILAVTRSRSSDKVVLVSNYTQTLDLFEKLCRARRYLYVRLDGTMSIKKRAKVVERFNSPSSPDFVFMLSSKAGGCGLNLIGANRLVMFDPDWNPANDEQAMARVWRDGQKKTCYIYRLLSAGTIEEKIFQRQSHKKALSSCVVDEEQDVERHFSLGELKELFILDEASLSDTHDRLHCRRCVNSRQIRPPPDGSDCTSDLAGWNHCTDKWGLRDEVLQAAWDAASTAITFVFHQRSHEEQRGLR
The nature of test [18]: microbe, parasite or virus in culture. Conditions: Mycobacterium tuberculosis. In kind it is functional.
Test [19] relates to HEK293. Briefly: inhibitors of LMP1-driven NF-kB reporter, dose response, cell-based, HEK293, luciferase, cherry-pick (AID 588343). It counts as functional. Conditions: Homo sapiens.
The test system of test [20] is Vero. Briefly: cells. It counts as functional. Conditions: Chlorocebus sabaeus.
The nature of test [21]: HepG2 cell cytotoxicity, dose response, cytotoxicity control for Shn3 inhibitor project, CellTiter-Glo, cherry-picked (AID 624134). It counts as functional, cell-based.
For test [22], the target named is T5, Interleukin-8 (Homo sapiens, UniProt P10145).
T5 sequence (P10145 whole entry): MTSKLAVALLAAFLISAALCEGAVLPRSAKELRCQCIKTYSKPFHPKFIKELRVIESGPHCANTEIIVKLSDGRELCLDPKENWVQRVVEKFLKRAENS
Briefly: Dose Response confirmation of uHTS small molecule hits for cystic fibrosis induced NFkb Inhibitors in a PAF-induced IL8 counterscreen. It counts as functional. Conditions: read-out: IC50_Mean.

T3 sequence (P11940 whole entry): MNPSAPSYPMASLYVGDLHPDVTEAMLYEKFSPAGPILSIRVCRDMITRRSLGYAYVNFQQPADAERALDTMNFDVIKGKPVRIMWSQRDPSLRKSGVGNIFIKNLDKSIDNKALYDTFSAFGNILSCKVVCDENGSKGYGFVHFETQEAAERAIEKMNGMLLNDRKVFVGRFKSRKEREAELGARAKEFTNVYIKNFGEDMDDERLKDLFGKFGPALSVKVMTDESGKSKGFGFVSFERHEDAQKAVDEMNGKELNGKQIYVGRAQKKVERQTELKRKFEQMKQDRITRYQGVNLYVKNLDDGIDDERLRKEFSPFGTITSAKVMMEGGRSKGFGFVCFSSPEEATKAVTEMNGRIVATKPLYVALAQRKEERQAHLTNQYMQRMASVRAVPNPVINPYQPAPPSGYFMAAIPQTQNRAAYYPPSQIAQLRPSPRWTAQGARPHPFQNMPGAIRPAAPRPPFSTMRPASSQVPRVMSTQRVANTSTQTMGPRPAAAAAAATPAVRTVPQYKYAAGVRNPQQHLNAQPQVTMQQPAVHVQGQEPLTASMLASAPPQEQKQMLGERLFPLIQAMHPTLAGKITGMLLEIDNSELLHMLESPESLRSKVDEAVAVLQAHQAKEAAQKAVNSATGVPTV
Adenosylmethionine-8-amino-7-oxononanoate aminotransferase, sequence (P9WQ81 whole entry): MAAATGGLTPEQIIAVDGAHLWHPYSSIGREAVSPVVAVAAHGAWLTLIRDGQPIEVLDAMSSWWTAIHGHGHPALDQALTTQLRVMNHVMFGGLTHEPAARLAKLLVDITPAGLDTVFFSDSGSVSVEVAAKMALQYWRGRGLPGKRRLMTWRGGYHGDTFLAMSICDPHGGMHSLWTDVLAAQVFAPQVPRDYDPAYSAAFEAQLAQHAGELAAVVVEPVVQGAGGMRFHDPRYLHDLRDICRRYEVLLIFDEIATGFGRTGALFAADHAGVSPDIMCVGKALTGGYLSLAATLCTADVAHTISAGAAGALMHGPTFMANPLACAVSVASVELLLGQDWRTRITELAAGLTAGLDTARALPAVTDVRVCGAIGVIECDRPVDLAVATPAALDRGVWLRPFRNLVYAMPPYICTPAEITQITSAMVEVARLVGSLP
Protein Wnt-3a, sequence (P27467 whole entry): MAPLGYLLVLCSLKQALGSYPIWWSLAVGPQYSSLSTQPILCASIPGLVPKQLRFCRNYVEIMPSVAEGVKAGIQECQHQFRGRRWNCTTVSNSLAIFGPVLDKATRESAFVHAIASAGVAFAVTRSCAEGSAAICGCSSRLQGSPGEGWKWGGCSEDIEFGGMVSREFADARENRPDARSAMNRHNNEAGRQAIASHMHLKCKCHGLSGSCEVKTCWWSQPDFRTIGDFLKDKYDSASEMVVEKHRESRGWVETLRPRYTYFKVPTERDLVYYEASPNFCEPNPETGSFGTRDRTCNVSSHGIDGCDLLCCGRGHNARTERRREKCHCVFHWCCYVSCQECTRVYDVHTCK

Take `CC(=O)c1ccc(C(=O)N2CCCC(C(=O)c3ccc(Cl)cc3)C2)s1` (centres undefined): in test [1], the AC50 is 2.51 µM (active).
In the case of `COc1ccc(NC(S)=NNc2ccc([N+](=O)[O-])cc2S(=O)(=O)Nc2ccc(C)cc2C)cc1`, the EC50 is 6.57 µM (active) in test [2], > 150 µM (not active) in test [3] and 37.7 µM (active) in test [4]. In test [5], the CC50 is 12.2 µM (active).
Consider `CCc1ccc(NC(=S)Nc2cccc3cnccc23)cc1`, for which, in test [6], the IC50 was 20 µM (active).
For `CC(C)C(=O)Nc1ccc(NC(=S)NC(=O)c2ccc([N+](=O)[O-])cc2)cc1`, the IC50 in test [7] and in [8] was > 66 µM (inactive) throughout.
With `Cc1sc2ncnc(NCC(O)c3ccc([N+](=O)[O-])cc3)c2c1C` (centres undefined), the AC50 in test [9] is 3.56 µM (active). The IC50 in [10] was 0.544 µM (active).
For the molecule `COCCCn1c(N)c(C(=O)NCCC(C)C)c2nc3ccccc3nc21`, the EC50 is 11.3 µM (active) in test [11] and 12 µM (active) in test [12]. Besides, in [6], the IC50 is 46.2 µM (active). In addition, the AC50 is 74.7 µM (active) in test [13] and 15.9 µM (active) in [14].
Take `O=C(N[C@@H]1C/C=C\C[C@H](CC(=O)N(CCO)Cc2ccccc2)C(=O)NC[C@@H](c2ccccc2)OC1=O)OCC1c2ccccc2-c2ccccc21`: the concentration at half-maximal activity (AC50) in test [15] is 4.5 µM (active); in test [16], 4.9 µM (active). Besides, in test [10], the IC50 was 4.4 µM (active).
As to `Cc1ccnc(SC2CC(=O)N(c3ccccc3)C2=O)n1` (centres undefined), the IC50 in test [7] and in test [8] was > 66 µM (inactive) throughout.
For the molecule `CNC(=O)C[C@H]1CC[C@@H]2[C@H](COC[C@@H](O)CN2C(=O)Nc2cccc(OC)c2)O1`, in test [1], the AC50 was 4.57 µM (active).
In the case of `CC(N)c1csc(Nc2nncc3ccccc23)n1` (centres undefined), the AC50 in test [17] is 28.5 µM (active).
With `CCOC(=O)Oc1c(OC)cc(C(=O)O[C@@H]2C[C@@H]3CN4CCc5c([nH]c6cc(OC)ccc56)[C@H]4C[C@@H]3[C@H](C(=O)OC)[C@H]2OC)cc1OC` [SYROSINGOPINE], the CC50 in test [18] is 24.6 µM (active); in test [20], 11.9 µM (active). The AC50 in test [19] is 24.6 µM (active); in test [15], 10.7 µM (active); in test [21], 50.6 µM (active); in test [16] it was 22.4 µM (active). Also, in test [22], the IC50 was > 79 µM (inactive).

For the origin of these results see ChEMBL document CHEMBL1201862, “PubChem BioAssay data set” (2004).
